Legend:
Format in all cases: in vivo
[1] = system: panelists; experiment: experiment on cooling intensity: panelists taste solutions and compare with menthol at 2 ppm; conditions: tasted by a small group of panelists; reference menthol at 2 ppm
[2] = system: mouth; experiment: Application in mouthwash: cooling perception in the mouth; conditions: mouthwash with 10 mL of 1% solution in alcohol per liter, 30 mL swished, gargled and spit out
Experimental: [table] All the ingredients are mixed. 30 mL of obtained solution is put in the mouth, swished around, gargled and spit out. […] The cooling perception lasts for several hours

[3] = system: mouth; experiment: Application in toothpaste: cooling perception in the mouth; conditions: toothgel with 1.500 g of 2% solution in PG per 100 g, teeth brushed, mouth rinsed with water
From the text: [table] The chemicals are mixed in the toothgel, a piece of toothgel is put on a toothbrush and a panelist's teeth are brushed. The mouth is rinsed with water and the water is spit out. […] The cooling perception lasts for several hours.

Compound: CC1CCC(C(C)C)C(C(=O)Nc2ccc3c(c2)OCO3)C1 (stereo not shown) [N-benzo[1,3]dioxol-5-yl-3-p-menthanecarboxamide]
- Concentration of solution having a cooling intensity similar or slightly higher than that of a solution of menthol at 2 ppm [1]: 0.02 ppm

Compound: CC1CCC(C(C)C)C(C(=O)Nc2cccc3ocnc23)C1 (stereo not shown) [Example 1, N-benzooxazol-4-yl 3-p-menthanecarboxamide]
- duration of cooling perception [2]: several hours
- cooling sensation ([2]; every area of the mouth and lips): intense cooling
- Concentration of solution having a cooling intensity similar or slightly higher than that of a solution of menthol at 2 ppm [1]: 0.02 ppm

Compound: CC1CCC(C(C)C)C(C(=O)Nc2ccc(N3CCOCC3)cc2)C1 (stereo not shown) [N-4-(morpholin-4-yl)-phenyl 3-p-menthanecarboxamide]
- Concentration of solution having a cooling intensity similar or slightly higher than that of a solution of menthol at 2 ppm [1]: 0.2 ppm

Compound: CC1CCC(C(C)C)C(C(=O)Nc2ccc3ncsc3c2)C1 (stereo not shown) [Example 3, N-benzothiazol-6-yl menthanecarboxamide]
- Concentration of solution having a cooling intensity similar or slightly higher than that of a solution of menthol at 2 ppm [1]: 0.3 ppm

Compound: CC1CCC(C(C)C)C(C(=O)Nc2ccc(-n3cccn3)cc2)C1 (stereo not shown) [N-4-(pyrazol-1-yl)-phenyl-3-p-menthanecarboxamide]
- Concentration of solution having a cooling intensity similar or slightly higher than that of a solution of menthol at 2 ppm [1]: 0.02 ppm

Compound: CC1CCC(C(C)C)C(C(=O)Nc2ccc(-c3cnco3)cc2)C1 (stereo not shown) [Example 5, N-4-(oxazol-5-yl)-phenyl-3-p-menthanecarboxamide]
- Concentration of solution having a cooling intensity similar or slightly higher than that of a solution of menthol at 2 ppm [1]: 0.5 ppm

Compound: CC1CCC(C(C)C)C(C(=O)Nc2ccc(-n3cncn3)cc2)C1 (stereo not shown) [Example 4, N-4-([1,2,4]triazol-1-yl)-phenyl-3-p-menthanecarboxamide]
- Concentration of solution having a cooling intensity similar or slightly higher than that of a solution of menthol at 2 ppm [1]: 0.02 ppm

Compound: CC1CCC(C(C)C)C(C(=O)Nc2cccc(-c3cnco3)c2)C1 (stereo not shown) [Example 6, N-3-(oxazol-5-yl)-phenyl-3-p-menthanecarboxamide]
- duration of cooling perception [3]: several hours
- cooling sensation ([3]; all areas of the mouth): intense cooling sensation
- Concentration of solution having a cooling intensity similar or slightly higher than that of a solution of menthol at 2 ppm [1]: 0.1 ppm

Compound: CC1CCC(C(C)C)C(O)C1 (stereo not shown) [Example 1-Menthol, 1-Menthol, reference compound]
- Concentration of solution having a cooling intensity similar or slightly higher than that of a solution of menthol at 2 ppm [1]: 2.0 ppm

Reference: patent US7868004B2, “Menthane carboxamide derivatives having cooling properties” (Givaudan S.A., priority 2005, dated 2011)
